# Patent publication US9834514B2, “Antibiotic sensitivity-restoring and photosensitive agents” (New Mexico Tech Research Foundation, priority 2015, dated 2017)
# Where two headings read alike, the source gives them in different places.
# Assays:
# [1] = system: P. aeruginosa; assay: MIC against P. aeruginosa; type: cell-based; conditions: Pseudomonas aeruginosa, read-out: MIC
# Text: Only compound 1 was able to decrease the CFU/mL when used in conjunction with white light to treat P. aeruginosa.
# [2] = system: S. aureus (ATCC 29213); assay: MIC against drug sensitive S. aureus; type: cell-based; conditions: Staphylococcus aureus, ATCC29213; ATCC 29213; read-out: S. aureus MIC
# [3] = system: MRSA isolates (S. aureus ATCC 33591, BAA-44, BAA-1707, BAA-1717, BAA-1720, BAA-1747, BAA-1754, BAA-1761, BAA-1763, BAA-1764, BAA-1766); assay: Combination effects of compounds 7-11 and antibiotics on MRSA isolates (turbidity); type: cell-based
# Text: Inhibition resulting from co-treatment of a broth suspension with a compound of the invention and an antibiotic was compared to broth suspensions subjected to each individual treatment. A visual observation of inhibition with the unaided eye upon co-treatment of the broth suspensions, based on turbidity, was considered synergistic.
# Exceptions to reading complete inhibition of growth included Gram-positive cocci. For Gram-positive cocci, trailing growth was observed. For these species, the MICs were read at the first spot where trailing was observed, and tiny buttons of growth were ignored. […]
# Two-fold dilutions of the antibiotics were prepared in a liquid growth medium dispensed in test tubes. […] The antibiotic-containing tubes were inoculated with a standard bacterial suspension of 5×10^5 CFU/mL. Following an overnight incubation (16-20 hrs) at 35±2° C. under ambient air, the tubes were examined for visible bacterial growth based on turbidity. The lowest concentration of antibiotic that prevented growth was determined to be the MIC. An incubation time of 24 hrs was used to determine the MICs of oxacillin and vancomycin.
# [4] = system: MRSA; assay: Resensitization to antibiotics (log reduction, TABLE 29); type: cell-based, S. aureus; conditions: compound 8 μM; Norfloxacin (25 μg/mL)
# [5] = system: WI38 cells; assay: Toxicity (IC50) on WI38 cells; type: cell-based; conditions: Homo sapiens, WI-38; normal lung fibroblast WI38 cells
# Procedure: The toxicities of the compounds of the invention were determined for human cancerous cervical epithelium HeLa and normal lung fibroblast WI38 cells. The toxicities of EPIs INF-55 and INF-55Cl were quantified as controls. […] TABLE 2 compares the toxicity of compounds 7-11 on HeLa cells and normal WI38 cells.
# [6] = system: A. baumannii; assay: Resensitization to antibiotics (log reduction, TABLE 29); type: cell-based; conditions: compound 5 μM; PME (0.2 μg/mL)
# [7] = MIC against MRSA isolates; type: cell-based, S. aureus; conditions: Staphylococcus aureus
# Summary of the method: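 Broth microdilution in TSB, ~5×10^5 CFU/mL, two-fold dilutions from 100 μM, overnight at 37 °C shaking 100 rpm.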
# [8] = system: MRSA; assay: Resensitization to antibiotics (log reduction, TABLE 29); type: cell-based, S. aureus; conditions: compound 8 μM; Oxacillin ([…])
# Procedure: In a 96-well microtiter plate, two-fold dilutions were made of each drug (starting with 100 μM) in 100 μL of a cell suspension in TSB. The resulting samples were incubated overnight at 37° C. on a rotary shaking incubator at 100 rpm. The samples were then visually inspected for turbidity. A 20% well volume of MTT reagent (5 mg/mL) was subsequently added, and the samples were incubated for about 20 minutes.
compound,measurement,setting,value
Clc1ccc(/N=N/c2c[nH]c3ccccc23)cc1 [Compound 9],MIC,[1],> 100 µM
same,MIC,[2],16 µM
same,combination effect with Gentamycin,[3]; MRSA ATCC 33591,No Synergy
same,combination effect with Norfloxacin,[3]; MRSA ATCC 33591,No Synergy
same,combination effect with Oxacillin,[3]; MRSA ATCC 33591,No Synergy
same,combination effect with Tetracycline,[3]; MRSA ATCC 33591,No Synergy
same,combination effect with Vancomycin,[3]; MRSA ATCC 33591,Susceptible
same,combination effect with Norfloxacin,[3]; MRSA ATCC BAA-44,No Synergy
same,combination effect with Oxacillin,[3]; MRSA ATCC BAA-44,No Synergy
same,combination effect with Tetracycline,[3]; MRSA ATCC BAA-44,Susceptible
same,combination effect with Vancomycin,[3]; MRSA ATCC BAA-44,Susceptible
same,combination effect with Gentamycin,[3]; MRSA ATCC BAA-1707,Susceptible
same,combination effect with Norfloxacin,[3]; MRSA ATCC BAA-1707,Susceptible
same,combination effect with Oxacillin,[3]; MRSA ATCC BAA-1707,Susceptible
same,combination effect with Tetracycline,[3]; MRSA ATCC BAA-1707,No Synergy
same,combination effect with Vancomycin,[3]; MRSA ATCC BAA-1707,Susceptible
same,combination effect with Gentamycin,[3]; MRSA ATCC BAA-1717,Susceptible
same,combination effect with Norfloxacin,[3]; MRSA ATCC BAA-1717,Susceptible
same,combination effect with Oxacillin,[3]; MRSA ATCC BAA-1717,Synergy
same,combination effect with Tetracycline,[3]; MRSA ATCC BAA-1717,Susceptible
same,combination effect with Vancomycin,[3]; MRSA ATCC BAA-1717,Susceptible
same,combination effect with Gentamycin,[3]; MRSA ATCC BAA-1720,Susceptible
same,combination effect with Norfloxacin,[3]; MRSA ATCC BAA-1720,No Synergy
same,combination effect with Oxacillin,[3]; MRSA ATCC BAA-1720,Synergy
same,combination effect with Tetracycline,[3]; MRSA ATCC BAA-1720,Susceptible
same,combination effect with Vancomycin,[3]; MRSA ATCC BAA-1720,Susceptible
same,combination effect with Gentamycin,[3]; MRSA ATCC BAA-1747,Susceptible
same,combination effect with Norfloxacin,[3]; MRSA ATCC BAA-1747,Susceptible
same,combination effect with Oxacillin,[3]; MRSA ATCC BAA-1747,Susceptible
same,combination effect with Tetracycline,[3]; MRSA ATCC BAA-1747,Susceptible
same,combination effect with Vancomycin,[3]; MRSA ATCC BAA-1747,Susceptible
same,combination effect with Gentamycin,[3]; MRSA ATCC BAA-1754,Susceptible
same,combination effect with Norfloxacin,[3]; MRSA ATCC BAA-1754,Susceptible
same,combination effect with Oxacillin,[3]; MRSA ATCC BAA-1754,No Synergy
same,combination effect with Tetracycline,[3]; MRSA ATCC BAA-1754,Susceptible
same,combination effect with Vancomycin,[3]; MRSA ATCC BAA-1754,Susceptible
same,combination effect with Gentamycin,[3]; MRSA ATCC BAA-1761,Susceptible
same,combination effect with Norfloxacin,[3]; MRSA ATCC BAA-1761,No Synergy
same,combination effect with Oxacillin,[3]; MRSA ATCC BAA-1761,Susceptible
same,combination effect with Tetracycline,[3]; MRSA ATCC BAA-1761,Susceptible
same,combination effect with Vancomycin,[3]; MRSA ATCC BAA-1761,Susceptible
same,combination effect with Gentamycin,[3]; MRSA ATCC BAA-1763,Susceptible
same,combination effect with Norfloxacin,[3]; MRSA ATCC BAA-1763,No Synergy
same,combination effect with Oxacillin,[3]; MRSA ATCC BAA-1763,Synergy
same,combination effect with Tetracycline,[3]; MRSA ATCC BAA-1763,Susceptible
same,combination effect with Vancomycin,[3]; MRSA ATCC BAA-1763,Susceptible
same,combination effect with Gentamycin,[3]; MRSA ATCC BAA-1764,Susceptible
same,combination effect with Norfloxacin,[3]; MRSA ATCC BAA-1764,Susceptible
same,combination effect with Oxacillin,[3]; MRSA ATCC BAA-1764,Synergy
same,combination effect with Tetracycline,[3]; MRSA ATCC BAA-1764,Susceptible
same,combination effect with Vancomycin,[3]; MRSA ATCC BAA-1764,Susceptible
same,combination effect with Gentamycin,[3]; MRSA ATCC BAA-1766,Susceptible
same,combination effect with Norfloxacin,[3]; MRSA ATCC BAA-1766,Susceptible
same,combination effect with Oxacillin,[3]; MRSA ATCC BAA-1766,Synergy
same,combination effect with Tetracycline,[3]; MRSA ATCC BAA-1766,Susceptible
same,combination effect with Vancomycin,[3]; MRSA ATCC BAA-1766,Susceptible
same,Log Reduction,[4],2-3
same,IC50,[5],61.9 µM
same,Log Reduction,[6],8
same,MIC,"[7]; MRSA (ATCC BAA-44), TABLE 21, read-out: MRSA MIC",16 µM
same,MIC,"[7]; MRSA isolate ATCC 33591, read-out: MIC",12.5 µM
same,MIC,"[7]; MRSA isolate ATCC BAA-44, read-out: MIC",16 µM
same,MIC,"[7]; MRSA isolate ATCC BAA-1707, read-out: MIC",12.5 µM
same,MIC,"[7]; MRSA isolate ATCC BAA-1717, read-out: MIC",6.3 to 12.5 µM
same,MIC,"[7]; MRSA isolate ATCC BAA-1720, read-out: MIC",12.5 µM
same,MIC,"[7]; MRSA isolate ATCC BAA-1747, read-out: MIC",12.5 µM
same,MIC,"[7]; MRSA isolate ATCC BAA-1754, read-out: MIC",12.5 µM
same,MIC,"[7]; MRSA isolate ATCC BAA-1761, read-out: MIC",12.5 µM
same,MIC,"[7]; MRSA isolate ATCC BAA-1763, read-out: MIC",12.5 µM
same,MIC,"[7]; MRSA isolate ATCC BAA-1764, read-out: MIC",12.5 µM
same,MIC,"[7]; MRSA isolate ATCC BAA-1766, read-out: MIC",12.5 µM
same,Log Reduction,[8],2-3
